Laboratory results as given in patent EP0882016B1, “ALKYLATED STYRENES AS PRODRUGS TO COX-2 INHIBITORS” (Merck Frosst Canada & Co., priority 1996, dated 1997).

Experiments:
[1] = Rat plasma levels, per os pharmacokinetics in rats; assay type: in vivo, Male Sprague Dawley rats; settings: maximum rat plasma concentration of the active COX-2 inhibitor (corresponding carbonyl compound) after 20 mg/kg oral dose of the indicated prodrug
Source text: The animals are housed, fed and cared for according to the Guidelines of the Canadian Council on Animal Care.
Male Sprague Dawley rats (325-375 g) are fasted overnight prior to each PO blood level study.
The rats are placed in the restrainer one at a time and the box is firmly secured. The zero blood sample is obtained by nicking a small (1 mm or less) piece off the tip of the tail. The tail is then stroked with a firm but gentle motion from the top to the bottom to milk out the blood. Approximately 1 mL of blood is collected into a heparinized vacutainer tube.
Compounds are prepared as required, in a standard dosing volume of 10mL/kg, and administered orally by passing a 16 gauge, 3" gavaging needle into the stomach.
Subsequent bleeds are taken in the same manner as the zero bleed except that there is no need to nick the tail again. The tail is cleaned with a piece of gauze and milked/stroked as described above into the appropriately labelled tubes.
Immediately after sampling, blood is centrifuged, separated, put into clearly marked vials and stored in a freezer until analysed.
Typical time points for determination of rat blood levels after PO dosing are: 0, 15min, 30min, 1h, 2h, 4h, 6h
After the 4hr time point bleed, food is provided to the rats ad libitum. Water is provided at all times during the study.
The following vehicles may be used in PO rat blood level determinations:
Compounds for PO blood levels can be in suspension form. For better dissolution, the solution can be placed in a sonicator for approximately 5 minutes.
For analysis, aliquots are diluted with an equal volume of acetonitrile and centrifuged to remove protein precipitate. The supernatant is injected directly onto a C-18 HPLC column with UV detection. Quantitation is done relative to a clean blood sample spiked with a known quantity of drug. Bioavailability (F) is assessed by comparing area under the curve (AUC) i.v. versus p.o. F =(AUCpo)/(AUCiv)x(DOSEiv)/(DOSEpo)x 100% [formula] […]

Rat Paw Edema = experiment: Rat paw edema assay (carrageenan); assay type: in vivo, Male Sprague-Dawley rats; settings: dose of prodrug, po, required to reduce edema formation by 50% as compared to the vehicle control
Method: Male Sprague-Dawley rats (150-200 g) are fasted overnight and are given, po, either vehicle (1% methocel or 5% Tween 80) or a test compound. One hr later, a line is drawn using a permanent marker at the level above the ankle in one hind paw to define the area of the paw to be monitored. The paw volume (V0) is measured using a plethysmometer (Ugo-Basile, Italy) based on the principle of water displacement. The animals are then injected subplantarly with 50 µl of 1% carrageenan solution in saline (FMC Corp, Maine) into the paw using an insulin syringe with a 25-gauge needle (i.e. 500 µg carrageenan per paw). Three hr later, the paw volume (V3) is measured and the increases in paw volume (V3 - VO) are calculated. The animals are sacrificed by CO2 asphyxiation and the absence or presence of stomach lesions scored. Data is compared with the vehicle-control values and percent inhibition calculated. All treatment groups are coded to eliminate observer bias.
Compounds of the present invention are prodrugs of inhibitors of COX-2 and are thereby useful in the treatment of COX-2 mediated diseases as enumerated above. The extent of conversion of these compounds to the active COX-2 inhibitors may be seen in the representative results shown in Table III along with their antiinflammatory activity. The plasma levels indicated are the maximum rat plasma concentrations of the active COX-2 inhibitor observed when the rat was treated with a 20 mg/kg oral dose of the indicated prodrug. The ED50 values in the rat paw edema assay represent the dose of prodrug required to reduce edema formation by 50% as compared to the vehicle control.

Row | SMILES | Plasma Levels (µM)* [1] | Rat Paw Edema (ED50, mg/kg) (Rat Paw Edema)
1 | CC(C)(O)/C(=C(\CO)c1cccc(F)c1)c1ccc(S(C)(=O)=O)cc1 [Example 1, 2-(3-Fluorophenyl)-4-methyl-3-(4-(methylsulfonyl)-phenyl)-2-(Z)-penten-1,4-diol] | 3.5 µM | 10 mg/kg
2 | COC(C)(C)/C(=C(\C(=O)N(C)C)c1cccc(F)c1)c1ccc(S(C)(=O)=O)cc1 [Example 4, N,N-Dimethyl-2-(3-fluorophenyl)-4-methoxy-4-methyl-3-(4-(methylsulfonyl)phenyl)-2-(Z)-pentenamide] | 10 µM | 1.6 mg/kg
3 | COC(=O)/C(=C(/c1ccc(S(C)(=O)=O)cc1)C(C)(C)OC)c1cccc(F)c1 [Example 6, Methyl 2-(3-fluorophenyl)-4-methoxy-4-methyl-3-(4-(methylsulfonyl)phenyl)-2-(Z)-pentenoate] | 6 µM | 2.1 mg/kg
